Test results taken from publication PMC10046562, “Computational Analysis and Experimental Testing of the Molecular Mode of Action of Gatastatin and Its Derivatives” (Cancers, 2023).

Target: T1, α-β tubulin (β tubulin, porcine brain) (Sus scrofa, UniProt P02550+P02554)
T1 construct: α-β tubulin purified from porcine brains, labeled with RED-NHS; with α tubulin
Test: microscale thermophoresis, labeled tubulin
Format: binding

T1 sequence (P02554 whole entry): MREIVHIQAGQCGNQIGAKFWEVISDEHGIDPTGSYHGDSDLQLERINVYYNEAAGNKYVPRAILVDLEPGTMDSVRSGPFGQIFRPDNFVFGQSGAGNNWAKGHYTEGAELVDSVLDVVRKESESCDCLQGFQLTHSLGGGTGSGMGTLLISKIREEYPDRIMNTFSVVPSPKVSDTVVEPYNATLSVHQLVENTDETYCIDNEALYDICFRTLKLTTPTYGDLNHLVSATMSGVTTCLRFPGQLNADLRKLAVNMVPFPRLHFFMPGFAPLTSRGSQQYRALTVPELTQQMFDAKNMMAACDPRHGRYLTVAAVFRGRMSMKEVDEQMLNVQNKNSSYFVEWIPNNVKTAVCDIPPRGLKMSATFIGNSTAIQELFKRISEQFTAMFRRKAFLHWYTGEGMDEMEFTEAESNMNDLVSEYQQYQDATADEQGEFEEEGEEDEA
T1 sequence (P02550 whole entry): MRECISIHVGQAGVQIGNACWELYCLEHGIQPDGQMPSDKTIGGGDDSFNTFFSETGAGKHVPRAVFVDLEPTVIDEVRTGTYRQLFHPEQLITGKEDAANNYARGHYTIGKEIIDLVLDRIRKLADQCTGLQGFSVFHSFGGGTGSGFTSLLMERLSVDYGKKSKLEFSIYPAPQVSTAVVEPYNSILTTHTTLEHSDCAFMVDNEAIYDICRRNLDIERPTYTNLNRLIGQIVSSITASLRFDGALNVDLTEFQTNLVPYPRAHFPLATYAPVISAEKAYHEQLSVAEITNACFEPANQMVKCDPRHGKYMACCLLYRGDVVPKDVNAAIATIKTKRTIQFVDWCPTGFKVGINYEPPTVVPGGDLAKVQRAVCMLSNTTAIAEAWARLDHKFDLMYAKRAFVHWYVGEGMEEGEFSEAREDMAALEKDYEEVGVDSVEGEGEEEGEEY

- Kd: 2160 ± 470 nM
Structure (SMILES): COc1cc2c(=O)c(-c3cc(OC)c4c(c3OC)OCO4)coc2cc1OCc1ccccc1 [gatastatin]
